In patent publication US20180305332A1, “Bispiperidinyl Derivatives as Liver X Receptor Beta Agonists, Compositions, and Their Use” (Merck Sharp & Dohme Corp., priority 2015, published 2018):
Each block holds one molecule with its values, some of them ahead of it.

Columns and labels:
[1] = biological target: T1, GST tagged LXRbeta LBD (ligand binding domain) (Homo sapiens, UniProt P55055); experiment: LanthaScreen TR-FRET Liver X Receptor Coactivator Assay, LXR beta-LBD; assay type: biochemical; settings: relative to reference T0901317; for EC50: Inflection Point (potency), co-activator recruitment, read-out: LXR beta IP; for Emax / LXR beta act @ max dose (%): activity at max dose (efficacy); for Emax: read-out: LXR beta act @ max dose (%)
T1 construct: purchased Invitrogen pv4658.pps
T1 sequence (P55055 222-460 limits assumed): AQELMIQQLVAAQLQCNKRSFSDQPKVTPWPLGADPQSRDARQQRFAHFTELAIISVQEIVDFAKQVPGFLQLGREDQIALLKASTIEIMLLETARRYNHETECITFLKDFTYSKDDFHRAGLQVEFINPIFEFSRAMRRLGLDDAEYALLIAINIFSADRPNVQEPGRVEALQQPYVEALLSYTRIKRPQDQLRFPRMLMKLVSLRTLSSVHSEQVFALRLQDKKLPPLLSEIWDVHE
Summary of the method: (§1)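 GST-tagged human LXRα or LXRβ LBD was mixed with test compound, then fluorescein-labelled coactivator peptide and terbium anti-GST antibody added. After room-temperature incubation, TR-FRET was read. Inflection point and Emax expressed relative to reference dual agonist T0901317.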

[2] = biological target: T2, GST tagged LXRalpha LBD (ligand binding domain) (Homo sapiens, UniProt Q13133); experiment: LanthaScreen TR-FRET Liver X Receptor Coactivator Assay, LXR alpha-LBD; assay type: biochemical; settings: relative to reference T0901317; for EC50 / LXR alpha IP (nM): Inflection Point (potency), co-activator recruitment; for EC50: read-out: LXR alpha IP; for Emax / LXR alpha act @ max dose (%): activity at max dose (efficacy); for Emax: read-out: LXR alpha act @ max dose (%)
T2 construct: purchased Invitrogen pv4655
T2 sequence (Q13133 209-447 limits assumed): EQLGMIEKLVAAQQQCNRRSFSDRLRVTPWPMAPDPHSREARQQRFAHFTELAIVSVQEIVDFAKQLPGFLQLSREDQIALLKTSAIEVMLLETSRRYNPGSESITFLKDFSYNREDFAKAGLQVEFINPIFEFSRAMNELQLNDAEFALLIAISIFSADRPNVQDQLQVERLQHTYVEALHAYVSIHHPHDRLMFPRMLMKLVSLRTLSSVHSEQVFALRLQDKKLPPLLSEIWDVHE
Summary of the method: as §1

Structure (SMILES): CN(C)C(=O)c1ccc(N2CCC(C3CCN(C(=O)C(F)(F)c4ccccc4Cl)CC3)CC2)cc1Cl [Example A-62, 2-chloro-4-{1′-[(2-chlorophenyl)(difluoro)acetyl]-4,4′-bipiperidin-1-yl}-N,N-dimethylbenzamide]
- EC50 [1]: 22 nM
- Emax [1]: 131%
- EC50 [2]: 782 nM
- Emax [2]: 74%

Structure (SMILES): CN(C)C(=O)c1ccc(N2CCC(C3CCN(C(=O)C(C)(C)c4cccc(F)c4)CC3)CC2)cc1Cl [Example A-91, 2-chloro-4-{1′-[2-(3-fluorophenyl)-2-methylpropanoyl]-4,4′-bipiperidin-1-yl}-N,N-dimethylbenzamide]
- EC50 [1]: 147 nM
- Emax [1]: 112%
- EC50 [2]: 2090 nM
- Emax [2]: 42%

Structure (SMILES): CN(C)C(=O)c1ccc(N2CCC(C3CCN(C(=O)C4(C(F)(F)F)CCCCC4)CC3)CC2)cc1Cl [Example A-27, 2-chloro-N,N-dimethyl-4-(1′-{[1-(trifluoromethyl)cyclohexyl]carbonyl}-4,4′-bipiperidin-1-yl)benzamide]
- EC50 [1]: 26 nM
- Emax [1]: 119%
- EC50 [2]: 300 nM
- Emax [2]: 70%

Structure (SMILES): CN(C)C(=O)c1ccc(N2CCC(C3CCN(C(=O)C(O)(CCc4ccccc4)C(F)(F)F)CC3)CC2)cc1Cl (stereo not drawn) [Example A-49, 2-chloro-4-{1′-[2-hydroxy-4-phenyl-2-(trifluoromethyl)butanoyl]-4,4′-bipiperidin-1-yl}-N,N-dimethylbenzamide]
- EC50 [1]: 429 nM
- Emax [1]: 32%
- LXR alpha IP (nM) [2]: NO IP
- Emax [2]: 16%

Structure (SMILES): CN(C)C(=O)c1ccc(N2CCC(C3CCN(S(=O)(=O)c4ccccc4)CC3)CC2)cc1Cl [Example A-99, 2-chloro-N,N-dimethyl-4-[1′-(phenylsulfonyl)-4,4′-bipiperidin-1-yl]benzamide]
- EC50 [1]: 496 nM
- Emax [1]: 54%
- LXR alpha IP (nM) [2]: NO IP
- Emax [2]: 0%

Structure (SMILES): CN(C)C(=O)c1ccc(N2CCC(C3CCN(C(=O)C(C)(C)c4ccc(Cl)cc4Cl)CC3)CC2)cc1Cl [Example A-60, 2-chloro-4-{1′-[2-(2,4-dichlorophenyl)-2-methylpropanoyl]-4,4′-bipiperidin-1-yl}-N,N-dimethylbenzamide]
- EC50 [1]: 33 nM
- Emax [1]: 109%
- EC50 [2]: 717 nM
- Emax [2]: 32%

Structure (SMILES): CN(C)C(=O)c1ccc(N2CCC(C3CCN(C(=O)C4(c5ccc(Cl)cc5Cl)CCC4)CC3)CC2)cc1Cl [Example A-77, 2-chloro-4-(1′-{[1-(2,4-dichlorophenyl)cyclobutyl]carbonyl}-4,4′-bipiperidin-1-yl)-N,N-dimethylbenzamide]
- EC50 [1]: 52 nM
- Emax [1]: 86%
- EC50 [2]: 618 nM
- Emax [2]: 31%

Structure (SMILES): CC(C)[C@](O)(C(=O)N1CCC(C2CCN(c3ccc(C(=O)N(C)C)c(Cl)c3)CC2)CC1)C(F)(F)F (single isomer, unassigned) [Example A-3]
- EC50 [1]: 63 nM
- Emax [1]: 103%
- EC50 [2]: 3550 nM
- Emax [2]: 36%

Structure (SMILES): CN(C)C(=O)c1ccc(N2CCC(C3CCN(C(=O)c4c(F)cccc4C(F)(F)F)CC3)CC2)cc1Cl [Example A-25, 2-chloro-4-(1′-{[2-fluoro-6-(trifluoromethyl)phenyl]carbonyl}-4,4′-bipiperidin-1-yl)-N,N-dimethylbenzamide]
- EC50 [1]: 113 nM
- Emax [1]: 109%
- EC50 [2]: 3540 nM
- Emax [2]: 54%

Structure (SMILES): CCC(F)(C(=O)N1CCC(C2CCN(c3ccc(C(=O)N(C)C)c(Cl)c3)CC2)CC1)c1ccccc1 (stereo not drawn) [Example A-61, 2-chloro-4-[1′-(2-fluoro-2-phenylbutanoyl)-4,4′-bipiperidin-1-yl]-N,N-dimethylbenzamide]
- EC50 [1]: 56 nM
- Emax [1]: 115%
- EC50 [2]: 888 nM
- Emax [2]: 53%

Structure (SMILES): CN(C)C(=O)c1ccc(N2CCC(C3CCN(C(=O)C(O)(C4CC4)C(F)(F)F)CC3)CC2)cc1Cl (single isomer, unassigned) [Example A-9, 2-chloro-4-[1′-(2-cyclopropyl-3,3,3-trifluoro-2-hydroxypropanoyl)-4,4′-bipiperidin-1-yl]-N,N-dimethylbenzamide]
- EC50 [1]: 116 nM
- LXR beta act @ max dose (%) [1]: 110%
- EC50 [2]: 1200 nM
- LXR alpha act @ max dose (%) [2]: 56%

Structure (SMILES): CN(C)C(=O)c1ccc(N2CCC(C3CCN(C(=O)C45CC(C4)C5)CC3)CC2)cc1Cl [Example A-15, 4-[1′-(bicyclo[1.1.1]pent-1-ylcarbonyl)-4,4′-bipiperidin-1-yl]-2-chloro-N,N-dimethylbenzamide]
- EC50 [1]: 314 nM
- Emax [1]: 93%
- EC50 [2]: 3130 nM
- Emax [2]: 31%

Structure (SMILES): COc1cccc([C@@](O)(C(=O)N2CCC(C3CCN(c4ccc(C(=O)N(C)C)c(Cl)c4)CC3)CC2)C(F)(F)F)c1 (single isomer, unassigned) [Example A-65]
- EC50 [1]: 119 nM
- Emax [1]: 100%
- EC50 [2]: 2120 nM
- Emax [2]: 19%

Structure (SMILES): CN(C)C(=O)c1ccc(N2CCC(C3CCN(C(=O)C(C)(C)c4ccc(Cl)cc4)CC3)CC2)cc1Cl [Example A-44, 2-chloro-4-{1′-[2-(4-chlorophenyl)-2-methylpropanoyl]-4,4′-bipiperidin-1-yl}-N,N-dimethylbenzamide]
- EC50 [1]: 143 nM
- Emax [1]: 95%
- EC50 [2]: 1980 nM
- Emax [2]: 22%

Structure (SMILES): COc1cccc(C2(C(=O)N3CCC(C4CCN(c5ccc(C(=O)N(C)C)c(Cl)c5)CC4)CC3)CCC2)c1 [Example A-93, 2-chloro-4-(1′-{[1-(3-methoxyphenyl)cyclobutyl]carbonyl}-4,4′-bipiperidin-1-yl)-N,N-dimethylbenzamide]
- EC50 [1]: 171 nM
- Emax [1]: 100%
- EC50 [2]: 2270 nM
- Emax [2]: 22%

Structure (SMILES): CC(C)C(O)(C(=O)N1CCC(C2CCN(c3ccc(C(=O)N(C)C)c(Cl)c3)CC2)CC1)C1CC1 (stereo not drawn) [Example A-110, 2-chloro-4-[1′-(2-cyclopropyl-2-hydroxy-3-methylbutanoyl)-4,4′-bipiperidin-1-yl]-N,N-dimethylbenzmamide]
- EC50 [1]: 52 nM
- Emax [1]: 127%
- EC50 [2]: 1040 nM
- Emax [2]: 69%

Structure (SMILES): CC(C)CC(O)(C(=O)N1CCC(C2CCN(c3ccc(C(=O)N(C)C)c(Cl)c3)CC2)CC1)C(F)(F)F (stereo not drawn) [Example A-90, 2-chloro-4-{1′-[2-hydroxy-4-methyl-2-(trifluoromethyl)pentanoyl]-4,4′-bipiperidin-1-yl}-N,N-dimethylbenzamide]
- EC50 [1]: 108 nM
- LXR beta act @ max dose (%) [1]: 70%
- EC50 [2]: 686 nM
- LXR alpha act @ max dose (%) [2]: 45%

Structure (SMILES): Cc1ccc(F)c(C(=O)N2CCC(C3CCN(c4ccc(C(=O)N(C)C)c(Cl)c4)CC3)CC2)c1F [Example A-38, 2-chloro-4-{1′-[(2,6-difluoro-3-methylphenyl)carbonyl]-4,4′-bipiperidin-1-yl}-N,N-dimethylbenzamide]
- EC50 [1]: 164 nM
- Emax [1]: 85%
- EC50 [2]: 3450 nM
- Emax [2]: 22%

Next, values leading:

- EC50 [1]: 73 nM
- Emax [1]: 114%
- EC50 [2]: 1230 nM
- Emax [2]: 43%
Structure (SMILES): CN(C)C(=O)c1ccc(N2CCC(C3CCN(C(=O)C4(c5ccccc5)CCC4)CC3)CC2)nc1Cl [Example B-14, 2-chloro-N,N-dimethyl-6-{1′-[(1-phenylcyclobutyl)carbonyl]-4,4′-bipiperidin-1-yl}pyridine-3-carboxamide]

- EC50 [1]: 148 nM
- Emax [1]: 101%
- EC50 [2]: 21 nM
- Emax [2]: 24%
Structure (SMILES): Cc1nc(N2CCC(C3CCN(C(=O)C(O)(C(C)C)C(F)(F)F)CC3)CC2)ccc1C(=O)N(C)C (stereo not drawn) [Example C-1, 6-(1′-(2-Hydroxy-3-methyl-2-(trifluoromethyl)butanoyl)-[4,4′-bipiperidin]-1-yl)-N,N,2-trimethylnicotinamide]

- EC50 [1]: 237 nM
- Emax [1]: 36%
- EC50 [2]: 857 nM
- Emax [2]: 29%
Structure (SMILES): COC(=O)c1ccc(N2CCC(C3CCN(C(=O)OC(C)(C)C)CC3)CC2)nc1Cl [Example E-1, tert-butyl 1′-[6-chloro-5-(methoxycarbonyl)pyridin-2-yl]-4,4′-bipiperidine-1-carboxylate]

- EC50 [1]: 284 nM
- Emax [1]: 88%
- EC50 [2]: 3140 nM
- Emax [2]: 33%
Structure (SMILES): O=C(c1ccc(N2CCC(C3CCN(C(=O)[C@@](O)(c4ccccc4)C(F)(F)F)CC3)CC2)cc1Cl)N1CCCC1 (single isomer, unassigned) [Example E-19]

- EC50 [1]: 95 nM
- Emax [1]: 62%
- LXR alpha IP (nM) [2]: NO IP
- Emax [2]: 13%
Structure (SMILES): O=C(c1ccc(N2CCC(C3CCN(C(=O)[C@](O)(c4ccccc4)C(F)(F)F)CC3)CC2)cc1Cl)N1CCCC1C(F)(F)F (stereo partly drawn) [Example E-21, (2R)-3-[1′-(3-chloro-4-{[2-(trifluoromethyl)pyrrolidin-1-yl]carbonyl}phenyl)-4,4′-bipiperidin-1-yl]-1,1,1-trifluoro-3-oxo-2-phenylpropan-2-ol]

- EC50 [1]: 185 nM
- Emax [1]: 134%
- EC50 [2]: 2490 nM
- Emax [2]: 64%
Structure (SMILES): CC(C)(C(=O)N1CCC(C2CCN(c3cccc(S(C)(=O)=O)c3)CC2)CC1)c1ccccc1 [Example D-8, 1-(2-methyl-2-phenylpropanoyl)-1′-[3-(methylsulfonyl)phenyl]-4,4′-bipiperidine]
